Results reported in US4443448A, “Indane derivatives, pharmaceutical compositions thereof and method of preparation” (priority 1980, dated 1984).
Like-named read-outs stand apart in the source and are kept apart here.

Tests used:
[1] = in vivo; design: species or system rats; details: for Ratio catalep./Amphet.: catalepsy ED50 / amphetamine antagonism ED50; for ED50: rat, in vivo, po, read-out: Catalep. (catalepsy wire mesh, rat, max, ED50)
Protocol: A vertical wire netting (50 cm×49 cm). The meshes (openings) of the netting are square (1 cm×1 cm). The wire diameter is 2 mm.
The animals are labeled and used in groups of five. The test substance is administered orally (p.o) at 4 dose levels selected from the fixed dose scale.
The animals are placed in the middle of the vertical wire netting 60, 120, 180, 240, 300 and 360 minutes after administration of the test compound. The animals are considered cataleptic when they remain immobile during a period of 15 seconds.
This cataleptic reaction is designated +. If the rats are "atonic" and passively slide down the wire mesh they are considered not cataleptic. If the animals climb up and down the wire mesh they are nor cataleptic.
In both situations the designation--is used.

[2] = system: 3H-DA uptake in striatal synaptosomes; experiment: 3H-DA uptake in striatal synaptosomes in vitro; format: biochemical, rats; details: rat striatal synaptosomes, 12.5 nM 3H-DA, 37° C., pH 7.4
Protocol: ^3 H-DA uptake in striatal synaptosomes in vitro
0.32 M sucrose containing 1 mM Nialamide
Millipore filters (HAWPO 2500, 0.45μ)
3,4-dihydroxyphenylethylamine[ethyl-1-^3 H(N)]=^3 H-DA spc. act. app. 15 Ci/mmol, New England Nuclear Thomas Tissue Grinder, clearance 0.004-0.006 inch.
Rats are killed by a blow to their head, exsanguinated and their brains removed. The brain is placed on a precooled glassplate, and the two corpura striata are dissected out and gently homogenized in 40 volumes of ice cold 0.32 M sucrose containing 1 mM of nialamide using a hand homogenizer with teflon pestle. The P2 -fraction (synaptosomal fraction) is obtained by centrifugation (600 g, 10 min., 25000 g, 55 min. 4° C.) and suspended in 40 volumes of a modified Krebs-Ringer-phosphate buffer, pH 7.4. To 200 μl of the synaptosomal fraction on ice are added 3700 μl modified Krebs-Ringer-phosphate buffer--containing test compounds. After a preincubation at 37° C. for 5 min. […] The incubation is terminated by filtering the samples under vacuum through Millipore filters with a wash of 5 ml buffer containing 10 μM of unlabelled DA. After solubilizing the filters in 1 ml of cellosolve the radioactivity is determined by liquid scintillation counting after the addition of 10 ml of Insta-Gel. The unspecific binding of ^3 H-DA is determined by incubating control samples on ice instead of at 37° C.
All experiments are performed in triplicate.
The mean of all control samples and ice samples are calculated. […] The IC50-values are determined as the concentrations, at which the uptake are 50 percent of the uptake in control samples-uptake in ice samples.

[3] = Mouse grid shock (analgesia); format: in vivo; details: mice, minimal effective dose, in mg/kg
Protocol: The mouse grid consists of a perspex cage with wire grid bottom and a perspex lid, on which is placed a microphone sensitive to the frequency of a mouse squeak. A stimulator with motordriven potentiometer applies a sequence of square wave impulses of continuously increasing milliamperage to the grid. Frequency of impulses 20 cycles/sec., duration 5 msec. Milliamperage is recorded on a digital amperemeter connected to the stimulator. Activation of the microphone by a mouse-squeak cuts off the current and the final milliamperage appears on the meter.
Five mice are used for each dose level. Each mouse serves as its own control.
Prior to the administration of test substance the animals are placed on the grid one at a time, and the pain threshold is determined by increasing the current intensity until the mouse squeaks. The pain threshold may be read on the milliamperemeter. Fifteen minutes and 30 minutes after administration of test substance the mice are tested again and the pain thresholds recorded.
Analgesic effect is present, when the pain threshold is increased over the pre-dosing value (control value). The results are stated as % increase in pain threshold calculated on the basis of the control value.
The registration can also be done as an on-line procedure. In this case the punching instruction and punching cards will be provided automatically and the results will be registered as a minimal effective dose (MED) determined after van der Waerdens X-test.

[4] = in vivo
[5] = system: methylphenidate; experiment: Methylphenidate antagonism in mice; format: in vivo; details: for ED50: Mus musculus, ip
Protocol: Methylphenidate antagonism (ED50 mg/kg i.p.)
(§1) Perspex observation cages without bottom and lid, consisting of 5 sections each measuring 12×25×30 cm.
3×2 mice are used for each dose level. Two or 24 hours after injection of test substance, methylphenidate, 60 mg/kg, is injected s.c. After administration of methylphenidate the mice are placed in the observation cages, 2 in each cage, where they remain for exactly 1 hour. The cages were placed on corrugated paper, the corrugations facing upwards. It is examined whether the mice have been biting the corrugated paper or not. […] If one or more of the control pairs have not been biting, the test has to be repeated on a new set of mice.
The result is stated in fractions: 0/3, 1/3, 2/3 and 3/3 where 0, 1, 2 and 3 are the number of pairs which have not been biting on receipt of the dose in question.

[6] = system: amphetamine; experiment: Amphetamine antagonism in rats; format: in vivo; details: for ED50: Rattus norvegicus, po, read-out: Amphetamine antag. ED50 p.o.
Protocol: Amphetamine antagonism (ED50 mg/kg i.p.)
as §1
The test substance is given p.o. in a reasonable dose based on the determined LD50. Two or 24 hours later an intravaneous injection of amphetamine sulphate 13.6 mg/kg (10 mg/kg amphetamine base) is given, after which the rats are placed individually in the cages. The cages are placed on white corrugated paper. Five rats are used for each dose level. Observations are made after 55 minutes and 65 minutes-observation time: 1 minute. The animals are observed for stereotypy (movements of the head, compulsive gnawing). […] If the compound has full antagonistic effect another group of rats is used at a lower dose. […] The result is stated as fractions: 0/5, 1/5, 2/5, 3/5, 4/5 and 5/5, where 0, 1, 2, 3, 4 and 5 indicate the number of rats which have not shown stereotypy at the dose in question. The results are calculated as ED50 in mg/kg.

[7] = rats, p.o., strongest effect within first 6 hours
[8] = 2 h, read-out: MePh antag. ED50 2 hr i.p., mice, test substance i.p., 2 hr before methylphenidate 60 mg/kg s.c.
[9] = rats, p.o., amphetamine 10 mg/kg base i.v.
[10] = read-out: MePh antag. ED50 2 hr i.p., mice, test substance i.p., 2 hr before methylphenidate 60 mg/kg s.c.

| Compound | Ratio catalep./Amphet. [1] | ED50 [1, 7] | IC50 [2] | MED Grid Shock [3] | also measured |
| --- | --- | --- | --- | --- | --- |
| OCCCN1CCN([C@@H]2C[C@@H](c3ccc(F)cc3)c3ccc(F)cc32)CC1 (relative stereo) [Lu 14-036] | 1.6 | 3.7 mg/kg | 73 nM | 5 | LD50 ([4]; iv): 129 mg/kg; ED50 [5, 8]: 1.6 mg/kg; ED50 [6, 9]: 2.3 mg/kg |
| OCCCN1CCN([C@@H]2C[C@H](c3ccc(F)cc3)c3ccc(F)cc32)CC1 (relative stereo) [Lu 14-048] | – | – | 46 nM | – | – |
| CN1CCN([C@@H]2C[C@@H](c3ccccc3)c3ccc(F)cc32)CC1 (relative stereo) [Lu 14-067] | – | – | 68 nM | 5 | ED50 [5, 8]: > 40 mg/kg |
| OCCN1CCN([C@@H]2C[C@@H](c3ccc(F)cc3)c3ccc(Cl)cc32)CC1 (relative stereo) [Lu 14-068] | 0.9 | 1.5 mg/kg | 84 nM | 0.31 | LD50 ([4]; iv): 94 mg/kg; ED50 [5, 8]: 1.3 mg/kg; ED50 [6, 9]: 1.6 mg/kg |
| CN1CCN([C@@H]2C[C@H](c3ccc(Cl)c(Cl)c3)c3ccccc32)CC1 (relative stereo) [Lu 17-109] | – | – | 4 nM | – | – |
| CN1CCN([C@@H]2C[C@@H](c3ccc(Cl)c(Cl)c3)c3ccccc32)CC1 (relative stereo) [Lu 17-110] | – | – | 11 nM | – | – |
| OCCN1CCN([C@@H]2C[C@H](c3ccc(Cl)c(Cl)c3)c3ccccc32)CC1 (relative stereo) [Lu 17-132] | – | – | 12 nM | – | – |
| OCCN1CCN([C@@H]2C[C@@H](c3ccc(Cl)c(Cl)c3)c3ccccc32)CC1 (relative stereo) [Lu 17-133] | – | – | 3 nM | – | – |
| OCCCCN1CCN([C@@H]2C[C@@H](c3ccc(F)cc3)c3ccc(F)cc32)CC1 (relative stereo) [Lu 18-080] | 6.2 | 21.8 mg/kg | 25 nM | < 1.3 | LD50 ([4]; iv): 80 mg/kg; ED50 [5, 8]: 2.9 mg/kg; ED50 [6, 9]: 3.5 mg/kg |
| OCCCN1CCN([C@@H]2C[C@@H](c3ccc(Cl)c(Cl)c3)c3ccccc32)CC1 (relative stereo) [Lu 18-081] | – | – | 15 nM | – | – |
| OCCCN1CCN([C@@H]2C[C@H](c3ccc(Cl)c(Cl)c3)c3ccccc32)CC1 (relative stereo) [Lu 18-082] | – | – | 6 nM | – | – |
| OCCCCN1CCN([C@@H]2C[C@H](c3ccc(Cl)c(Cl)c3)c3ccccc32)CC1 (relative stereo) [Lu 18-120] | – | – | 5 nM | – | – |
| OCCCCN1CCN([C@@H]2C[C@@H](c3ccc(Cl)c(Cl)c3)c3ccccc32)CC1 (relative stereo) [Lu 18-121] | – | – | 11 nM | – | – |
| OCC(O)CN1CCN(C2CC(c3ccc(F)cc3)c3ccc(F)cc32)CC1 (single isomer, unassigned) [Lu 17-079] | – | – | 12 nM | – | – |
| OCC(O)CN1CCN(C2CC(c3ccc(Cl)c(Cl)c3)c3ccccc32)CC1 (single isomer, unassigned) [Lu 18-128] | – | – | 12 nM | – | – |
| OCC(O)CN1CCN(C2CC(c3ccc(Cl)c(Cl)c3)c3ccccc32)CC1 (single isomer, unassigned) [Lu 18-129] | – | – | 14 nM | – | – |
| CN1CCN(C2CC(c3ccc(F)cc3)c3ccc(F)cc32)CC1 (single isomer, unassigned; (-)) [Lu 17-152, (-) 1-Methyl-4-(3-(4'-fluorophenyl)-6-fluoro-1-indanyl)piperazine] | – | – | 88 nM | 5 | Catalep. (catalepsy wire mesh, rat, max, ED50) [1, 7]: > 320 mg/kg; MePh antag. ED50 2 hr i.p. ([5]; mice, test substance i.p., 2 hr before methylphenidate 60 mg/kg s.c., 120 min): 17 mg/kg; Amphetamine antag. ED50 p.o. [6, 9]: > 80 mg/kg |
| CC(O)CN1CCN(C2CC(c3ccc(F)cc3)c3ccc(F)cc32)CC1 (stereo not drawn) [Lu 17-144, 1-(2-hydroxy-1-propyl)-4-(3-(4'-fluorophenyl)-6-fluoro-1-indanyl)piperazine] | – | – | 18 nM | – | – |
| OCC(O)CN1CCN(C2CC(c3ccc(F)cc3)c3ccc(C(F)(F)F)cc32)CC1 (stereo not drawn) [Lu 18-063] | 3.2 | 0.38 mg/kg | – | 1.25 | LD50 ([4]; iv): 57 mg/kg; ED50 [5, 8]: 0.4 mg/kg; ED50 [6, 9]: 0.12 mg/kg |
| CN(C)CCCN1c2ccccc2Sc2ccc(Cl)cc21 [chlorpromazine, reference compound] | 1.19 | 25 mg/kg | – | 5 | LD50 ([4]; iv): 56.5 mg/kg; ED50 [5, 10]: 5.6 mg/kg; ED50 [6]: 21 mg/kg |
| OCCN1CCN(CCCN2c3ccccc3Sc3ccc(C(F)(F)F)cc32)CC1 [fluphenazine, reference compound] | 0.43 | 0.3 mg/kg | – | 2.5-5 | LD50 ([4]; iv): 98 mg/kg; ED50 [5, 8]: 0.04 mg/kg; ED50 [6, 9]: 0.7 mg/kg |
| O=C(CCCN1CCC(O)(c2ccc(Cl)cc2)CC1)c1ccc(F)cc1 [haloperidol, reference compound] | 1.0 | 0.4 mg/kg | – | < 5 | LD50 ([4]; ip): 226 mg/kg; ED50 [5, 10]: 0.04 mg/kg; ED50 [6]: 0.4 mg/kg |
